This is an account of results in patent US12023341B2, “Platinum-acridine compounds and methods of treating cancers” (Wake Forest University, priority 2020, dated 2024).

The test system of assay [1] is HCT-116 cells. The assay is described as follows: Uptake of compound 1 after epigenetic drugs, confocal fluorescence microscopy. The assay is classed as cell-based, human. The following applies: HCT-116, pre-screen of epigenetic drugs, alone or in combination.
Method: We first pre-screened several epigenetic drugs in cultured HCT-116 cells in a multi-well plate format for their ability to increase the uptake of compound 1 using confocal fluorescence microscopy. […] These compounds were then tested again at escalating doses (2.5-20 mM).
Confocal fluorescence microscopy. Cells were seeded and allowed to attach overnight before any treatment. After cells were treated depend on purposes of different experiments, media was removed and dishes were rinsed 3 times with 1 mL of pre-warmed PBS buffer. Cells were then used fixed with 4% formaldehyde in PBS buffer for 15 minutes. Dishes were then washed an additional 3 times with 1 mL of pre-warmed PBS before imaging. Images were collected using a LSM 880 Confocal Microscope (Carl Zeiss Microscopy) using a 63X/1.4NA Plan-Apochromatic objective. The fluorescence of acridine was excited with a 405 nm (15 mW) laser at 4.4% and collected between 405-481 nm. To allow comparative fluorescence intensity analysis, excitation power, pinhole settings, PMT gain, and offset values across and within imaging sessions for each respective channel were not changed. The intensity of acridine-related fluorescence in treated cells was estimated by drawing a region of interest around each cell. A total of more than 100 individual cells across 3 views of 2 independent experiments were analyzed in this fashion. […]
Assay [2] has as its target T1, hMATE1 (Homo sapiens, UniProt Q96FL8).
T1 sequence (Q96FL8 1-570): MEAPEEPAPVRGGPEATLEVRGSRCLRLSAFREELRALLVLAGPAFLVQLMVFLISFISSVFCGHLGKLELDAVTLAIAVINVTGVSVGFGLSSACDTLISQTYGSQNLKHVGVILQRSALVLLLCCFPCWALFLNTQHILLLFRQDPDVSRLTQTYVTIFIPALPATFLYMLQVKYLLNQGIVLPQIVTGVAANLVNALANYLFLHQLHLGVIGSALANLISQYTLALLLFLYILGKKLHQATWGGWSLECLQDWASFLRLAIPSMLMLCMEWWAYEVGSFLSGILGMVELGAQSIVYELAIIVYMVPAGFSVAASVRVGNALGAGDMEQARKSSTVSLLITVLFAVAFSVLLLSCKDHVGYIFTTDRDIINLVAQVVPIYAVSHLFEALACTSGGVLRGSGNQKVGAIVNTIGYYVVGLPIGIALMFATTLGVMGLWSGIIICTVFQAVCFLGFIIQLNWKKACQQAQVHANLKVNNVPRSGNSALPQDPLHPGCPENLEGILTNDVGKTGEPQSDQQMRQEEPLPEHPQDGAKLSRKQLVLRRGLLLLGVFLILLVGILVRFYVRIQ
Particulars: reported values; cited from earlier work.

As for `CCN(c1cc(-c2ccc(CN3CCOCC3)cc2)cc(C(=O)NCc2c(C)cc(C)[nH]c2=O)c1C)C1CCOCC1` [EPZ-6438], in assay [1], the “uptake of compound 1 (acridine-associated blue fluorescence)” value is “enhanced uptake of compound 1”.

Take `CCc1nc(N)nc(N)c1-c1ccc(Cl)cc1` [pyrimethamine]: in assay [2], the Ki – broadly, a dissociation constant, usually derived from enzyme kinetics or from competition with a known ligand – is 77 to 93 nM.

As to `CS(=O)(=O)c1ccc(-c2cnc(NCc3ccco3)n3cnnc23)cc1` [EED226], in assay [1], the “uptake of compound 1 (acridine-associated blue fluorescence)” value is “enhanced uptake of compound 1”.
